Test results published in ChEMBL document CHEMBL1201862, “PubChem BioAssay data set” (2004).
The source made the active and inactive calls. For most assays here, no stated cut-off is given here; in the data, actives have a measured EC50 and inactives only a lower limit.

Columns and labels:
BJ [1] = test: BJ-TERT fibroblast viability loss – cell-based, RAS-independent, luminescence, dose response (AID 1933); assay type: functional; details: Homo sapiens
BJ [2] = test: cells; assay type: functional, cell-based; details: Homo sapiens
BJ [3] = test: BJ-TERT-LT-ST fibroblast viability loss – cell-based, RAS-independent, luminescence, dose response (AID 1935); assay type: functional; details: Homo sapiens;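 further: BJ fibroblasts immortalized with TERT plus LT and ST oncogenes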
[4] = DRD fibroblast viability loss – cell-based, non-viral oncogenic, luminescence, dose response (AID 1934); assay type: functional; details: Homo sapiens
[5] = biological target: T1, Mannose-6-phosphate isomerase (Homo sapiens, UniProt P34949); test: MPI inhibition at elevated mannose 6-phosphate – biochemical, fluorescence intensity, high mannose 6-phosphate, primary screen (AID 1220)
T1 sequence (P34949 whole entry): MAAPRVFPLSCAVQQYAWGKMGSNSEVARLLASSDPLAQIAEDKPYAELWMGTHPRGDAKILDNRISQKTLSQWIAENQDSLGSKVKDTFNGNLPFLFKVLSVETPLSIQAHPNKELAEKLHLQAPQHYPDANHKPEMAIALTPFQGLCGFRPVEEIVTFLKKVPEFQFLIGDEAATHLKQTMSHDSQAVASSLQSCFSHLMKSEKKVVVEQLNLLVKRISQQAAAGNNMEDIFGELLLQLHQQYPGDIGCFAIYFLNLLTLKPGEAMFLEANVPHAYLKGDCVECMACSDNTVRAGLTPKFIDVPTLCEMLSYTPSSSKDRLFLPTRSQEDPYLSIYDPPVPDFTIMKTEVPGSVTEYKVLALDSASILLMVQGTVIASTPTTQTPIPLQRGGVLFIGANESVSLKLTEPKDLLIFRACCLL

[6] = biological target: T1, Mannose-6-phosphate isomerase; test: phosphomannose isomerase inhibition – biochemical, fluorescence intensity, confirmation (AID 1535)
[7] = biological target: DNA dC->dU-editing enzyme APOBEC-3A (Homo sapiens, UniProt P31941); test: A3A deaminase inhibition for selectivity – biochemical, dose response (AID 504722); assay type: functional
Chain of DNA dC->dU-editing enzyme APOBEC-3A (P31941 whole entry): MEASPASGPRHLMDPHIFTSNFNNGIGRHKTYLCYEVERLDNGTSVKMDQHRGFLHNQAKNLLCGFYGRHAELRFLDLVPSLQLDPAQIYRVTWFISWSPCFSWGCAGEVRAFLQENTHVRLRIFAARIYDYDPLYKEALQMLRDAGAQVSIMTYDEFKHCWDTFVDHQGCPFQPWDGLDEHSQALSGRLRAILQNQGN

Phosphomannomutase 2 = Phosphomannomutase 2 (Homo sapiens, UniProt O15305); test: Counter screen SAR assay for PMM2 inhibitors via a fluorescence intensity assay. [Related pubchem assays (depositor defined):AID1545, AID1574]
Chain of Phosphomannomutase 2 (O15305 whole entry): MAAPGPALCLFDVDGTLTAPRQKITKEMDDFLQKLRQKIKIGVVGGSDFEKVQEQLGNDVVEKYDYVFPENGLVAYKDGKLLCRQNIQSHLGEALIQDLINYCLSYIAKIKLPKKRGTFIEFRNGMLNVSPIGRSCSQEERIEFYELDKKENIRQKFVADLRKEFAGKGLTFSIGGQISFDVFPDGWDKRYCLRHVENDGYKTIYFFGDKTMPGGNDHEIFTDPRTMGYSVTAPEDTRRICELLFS

[8] = biological target: DNA dC->dU-editing enzyme APOBEC-3G (Homo sapiens, UniProt Q9HC16); test: Dose Response confirmation of small molecule APOBEC3G DNA Deaminase Inhibitors via a fluorescence-based single-stranded DNA deaminase assay. [Related pubchem assays (depositor defined):AID493012, AID493028]; assay type: functional
Chain of DNA dC->dU-editing enzyme APOBEC-3G (Q9HC16 whole entry): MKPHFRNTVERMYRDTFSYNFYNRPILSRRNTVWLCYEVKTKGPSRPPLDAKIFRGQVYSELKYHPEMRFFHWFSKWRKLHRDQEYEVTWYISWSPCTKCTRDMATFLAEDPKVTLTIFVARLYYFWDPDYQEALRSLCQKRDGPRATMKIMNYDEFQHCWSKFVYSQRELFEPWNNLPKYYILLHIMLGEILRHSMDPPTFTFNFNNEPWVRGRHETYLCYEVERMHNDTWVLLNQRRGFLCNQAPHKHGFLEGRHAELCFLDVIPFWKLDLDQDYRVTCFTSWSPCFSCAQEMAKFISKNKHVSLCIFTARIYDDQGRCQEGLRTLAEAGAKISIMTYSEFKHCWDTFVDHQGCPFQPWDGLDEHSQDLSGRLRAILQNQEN

[9] = biological target: Lysine-specific demethylase 4C (Homo sapiens, UniProt Q9H3R0); test: inhibition of JMJD2C H3K9me3 demethylation – biochemical, DELFIA europium, cherry-picked samples, dose response (AID 488835); assay type: functional
Chain of Lysine-specific demethylase 4C (Q9H3R0 whole entry): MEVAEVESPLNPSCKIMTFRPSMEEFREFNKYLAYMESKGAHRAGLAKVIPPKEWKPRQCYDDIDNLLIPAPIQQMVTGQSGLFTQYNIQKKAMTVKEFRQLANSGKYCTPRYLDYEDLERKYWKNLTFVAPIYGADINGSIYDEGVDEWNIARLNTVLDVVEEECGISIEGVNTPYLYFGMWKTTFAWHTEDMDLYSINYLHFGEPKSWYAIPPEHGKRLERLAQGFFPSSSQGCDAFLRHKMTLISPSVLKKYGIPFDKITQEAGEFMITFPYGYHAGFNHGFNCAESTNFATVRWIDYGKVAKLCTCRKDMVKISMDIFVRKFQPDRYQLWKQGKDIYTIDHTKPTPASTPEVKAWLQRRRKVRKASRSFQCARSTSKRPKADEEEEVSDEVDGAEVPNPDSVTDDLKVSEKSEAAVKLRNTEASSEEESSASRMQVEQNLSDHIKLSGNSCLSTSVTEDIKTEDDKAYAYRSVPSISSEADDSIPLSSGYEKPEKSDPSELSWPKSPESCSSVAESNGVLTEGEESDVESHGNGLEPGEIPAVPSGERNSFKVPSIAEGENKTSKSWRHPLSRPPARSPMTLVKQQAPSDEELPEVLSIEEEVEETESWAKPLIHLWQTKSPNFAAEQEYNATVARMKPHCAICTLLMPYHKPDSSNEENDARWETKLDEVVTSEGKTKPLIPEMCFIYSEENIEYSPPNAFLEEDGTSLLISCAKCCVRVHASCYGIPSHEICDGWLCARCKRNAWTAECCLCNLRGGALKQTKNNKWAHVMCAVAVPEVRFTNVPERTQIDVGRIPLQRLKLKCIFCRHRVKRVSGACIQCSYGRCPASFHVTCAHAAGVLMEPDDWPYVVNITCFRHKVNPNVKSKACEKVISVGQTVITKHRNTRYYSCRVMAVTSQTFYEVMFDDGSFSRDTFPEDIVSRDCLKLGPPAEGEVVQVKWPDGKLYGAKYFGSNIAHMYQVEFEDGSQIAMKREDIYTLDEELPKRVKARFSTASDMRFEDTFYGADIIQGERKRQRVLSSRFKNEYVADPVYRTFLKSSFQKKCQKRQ

[10] = luciferase reporter signal suppression in cells – H4 neuroglioma cells, luminescence, dose response (AID 1990); assay type: functional, cell-based
[11] = tested on: Streptococcus sp. 'group A'; test: Streptococcus pyogenes SK(-)GAS viability under kanamycin – luminescence, BacTiterGlo, confirmation, counter-screen for streptokinase expression inhibitor project, dose response (AID 1900); assay type: functional, organism-based
cells [12] = assay type: functional, cell-based
[13] = Luminescence Cell-Based Dose Response HTS to Identify Inhibitors of 5'UTR Stem-Loop Driven Prion Protein mRNA Translation in H4 Neuroglioblastoma Cells. [Related pubchem assays: 1827 (Project Summary), 1813 (Primary HTS)]; assay type: functional
[14] = alpha-synuclein stem-loop luciferase translation blockers – H4 neuroglioma cells, luminescence, confirmation (AID 1988); assay type: functional, cell-based
Streptokinase A = biological target: T2, Streptokinase A (Streptococcus pyogenes serotype M1, UniProt P10520); test: viability-normalized secreted streptokinase activity reduction – plasminogen activation absorbance, OD405, dose response (AID 1914); assay type: functional, Streptococcus pyogenes M1 GAS;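 further: secreted streptokinase activity via plasminogen activation per viability signal from cell pellet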
T2 sequence (P10520 whole entry): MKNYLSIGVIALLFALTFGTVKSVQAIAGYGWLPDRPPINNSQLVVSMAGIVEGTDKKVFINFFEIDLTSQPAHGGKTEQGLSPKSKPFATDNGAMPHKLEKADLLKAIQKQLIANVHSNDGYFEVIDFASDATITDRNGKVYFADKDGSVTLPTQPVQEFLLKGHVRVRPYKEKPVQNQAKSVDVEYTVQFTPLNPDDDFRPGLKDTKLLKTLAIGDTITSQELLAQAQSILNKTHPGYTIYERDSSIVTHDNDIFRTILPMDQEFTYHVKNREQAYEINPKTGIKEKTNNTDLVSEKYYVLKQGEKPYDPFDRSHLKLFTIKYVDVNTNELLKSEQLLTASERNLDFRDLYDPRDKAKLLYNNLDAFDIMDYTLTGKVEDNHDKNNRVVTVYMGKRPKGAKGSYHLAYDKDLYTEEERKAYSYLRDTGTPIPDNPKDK

cells [15] = assay type: functional, cell-based; remark: listed apart in the source
Streptococcus = test: GAS UMAA2166 growth inhibition – luminescence, BacTiterGlo, counter-screen for streptokinase expression inhibitor project, dose response (AID 1915); assay type: functional, organism-based;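 further: potency for reduction of bacterial viability or growth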
Exodeoxyribonuclease V = Exodeoxyribonuclease V (Escherichia coli (strain K12), UniProt P04993+P07648+P08394); test: RecBCD inhibition via phage-restricted bacterial growth – absorbance, V66 E. coli, mutant T4 phage, counter-screen for AddAB inhibitor project, dose response (AID 492957); assay type: functional, cell-based, Escherichia coli str. K-12 substr. MG1655
Chain of Exodeoxyribonuclease V (P04993 whole entry): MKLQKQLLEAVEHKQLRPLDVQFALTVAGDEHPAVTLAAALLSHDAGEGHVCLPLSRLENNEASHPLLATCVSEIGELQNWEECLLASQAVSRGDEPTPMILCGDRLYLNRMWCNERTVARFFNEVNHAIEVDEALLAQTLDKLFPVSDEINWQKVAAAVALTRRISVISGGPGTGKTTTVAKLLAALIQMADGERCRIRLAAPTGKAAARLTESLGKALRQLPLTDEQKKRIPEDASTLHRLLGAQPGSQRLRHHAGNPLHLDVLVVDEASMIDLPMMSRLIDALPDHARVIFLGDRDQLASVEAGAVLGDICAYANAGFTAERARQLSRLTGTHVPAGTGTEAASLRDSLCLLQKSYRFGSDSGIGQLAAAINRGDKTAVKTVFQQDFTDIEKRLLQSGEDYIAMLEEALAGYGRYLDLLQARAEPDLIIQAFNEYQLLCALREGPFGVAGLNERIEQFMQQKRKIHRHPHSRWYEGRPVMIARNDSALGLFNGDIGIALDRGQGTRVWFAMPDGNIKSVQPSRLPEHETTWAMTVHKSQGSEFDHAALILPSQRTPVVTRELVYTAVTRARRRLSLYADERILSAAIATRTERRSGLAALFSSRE
Chain of Exodeoxyribonuclease V (P07648 whole entry): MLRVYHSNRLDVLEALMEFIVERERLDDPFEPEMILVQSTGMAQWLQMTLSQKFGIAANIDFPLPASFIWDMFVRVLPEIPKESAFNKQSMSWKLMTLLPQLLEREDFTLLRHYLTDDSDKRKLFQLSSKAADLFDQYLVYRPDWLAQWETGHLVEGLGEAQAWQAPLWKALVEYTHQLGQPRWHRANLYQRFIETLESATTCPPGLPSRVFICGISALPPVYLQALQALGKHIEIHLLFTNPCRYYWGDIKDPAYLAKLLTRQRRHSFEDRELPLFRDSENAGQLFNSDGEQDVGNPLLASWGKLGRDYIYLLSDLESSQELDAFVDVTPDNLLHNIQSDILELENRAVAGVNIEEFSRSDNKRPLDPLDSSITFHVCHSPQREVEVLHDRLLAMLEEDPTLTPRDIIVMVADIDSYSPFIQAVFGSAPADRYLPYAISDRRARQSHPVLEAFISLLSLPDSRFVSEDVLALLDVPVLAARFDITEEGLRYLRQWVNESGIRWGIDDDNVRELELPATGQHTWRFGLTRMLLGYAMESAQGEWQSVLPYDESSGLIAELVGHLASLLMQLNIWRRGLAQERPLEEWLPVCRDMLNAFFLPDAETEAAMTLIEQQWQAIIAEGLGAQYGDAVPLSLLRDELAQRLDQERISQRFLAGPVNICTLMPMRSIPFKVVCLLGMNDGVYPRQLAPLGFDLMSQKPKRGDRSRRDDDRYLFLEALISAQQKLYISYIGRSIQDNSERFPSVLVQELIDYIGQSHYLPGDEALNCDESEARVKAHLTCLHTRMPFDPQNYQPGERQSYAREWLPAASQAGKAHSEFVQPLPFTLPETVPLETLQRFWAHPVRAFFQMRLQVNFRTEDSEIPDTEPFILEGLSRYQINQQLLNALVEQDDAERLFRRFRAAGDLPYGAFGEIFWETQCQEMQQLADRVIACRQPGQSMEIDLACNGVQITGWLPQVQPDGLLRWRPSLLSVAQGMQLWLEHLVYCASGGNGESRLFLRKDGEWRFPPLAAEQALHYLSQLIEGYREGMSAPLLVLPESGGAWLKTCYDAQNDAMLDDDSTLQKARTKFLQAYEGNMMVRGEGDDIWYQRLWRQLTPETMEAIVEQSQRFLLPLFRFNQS
Chain of Exodeoxyribonuclease V (P08394 whole entry): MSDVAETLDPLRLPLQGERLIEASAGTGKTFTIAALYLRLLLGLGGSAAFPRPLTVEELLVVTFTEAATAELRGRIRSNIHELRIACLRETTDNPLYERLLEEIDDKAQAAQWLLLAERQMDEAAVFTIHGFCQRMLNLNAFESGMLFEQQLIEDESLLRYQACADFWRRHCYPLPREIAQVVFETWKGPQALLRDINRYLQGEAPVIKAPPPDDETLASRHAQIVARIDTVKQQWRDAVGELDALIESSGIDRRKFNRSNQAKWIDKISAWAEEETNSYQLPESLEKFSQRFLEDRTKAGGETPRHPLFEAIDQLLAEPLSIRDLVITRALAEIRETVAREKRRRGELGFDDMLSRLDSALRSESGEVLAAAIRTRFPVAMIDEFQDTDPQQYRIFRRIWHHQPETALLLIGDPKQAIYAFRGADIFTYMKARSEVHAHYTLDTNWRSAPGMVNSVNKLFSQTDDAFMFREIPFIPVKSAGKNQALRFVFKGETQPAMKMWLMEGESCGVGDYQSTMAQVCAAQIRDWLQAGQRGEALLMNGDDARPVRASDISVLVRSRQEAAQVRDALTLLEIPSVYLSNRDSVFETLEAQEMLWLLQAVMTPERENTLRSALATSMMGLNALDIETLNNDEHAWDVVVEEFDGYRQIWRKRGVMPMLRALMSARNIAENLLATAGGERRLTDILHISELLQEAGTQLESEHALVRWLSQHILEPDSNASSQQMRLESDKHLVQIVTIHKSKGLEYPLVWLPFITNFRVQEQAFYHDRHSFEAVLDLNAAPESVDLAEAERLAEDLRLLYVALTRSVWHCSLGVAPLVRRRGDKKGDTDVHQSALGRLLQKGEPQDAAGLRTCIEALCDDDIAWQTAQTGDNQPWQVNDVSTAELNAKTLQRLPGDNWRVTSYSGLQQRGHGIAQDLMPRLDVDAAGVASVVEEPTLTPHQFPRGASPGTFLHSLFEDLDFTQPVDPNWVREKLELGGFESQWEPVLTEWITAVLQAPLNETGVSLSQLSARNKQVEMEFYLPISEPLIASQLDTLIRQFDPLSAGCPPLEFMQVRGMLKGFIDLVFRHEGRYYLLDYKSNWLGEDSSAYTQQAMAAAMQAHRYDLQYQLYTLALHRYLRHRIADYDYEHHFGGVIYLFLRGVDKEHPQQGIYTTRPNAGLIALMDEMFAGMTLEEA

Nonstructural protein 1 = Nonstructural protein 1 (Influenza A virus, UniProt Q194T2); assay type: functional, Influenza A virus (A/California/07/2009(H1N1))
Chain of Nonstructural protein 1 (Q194T2 whole entry): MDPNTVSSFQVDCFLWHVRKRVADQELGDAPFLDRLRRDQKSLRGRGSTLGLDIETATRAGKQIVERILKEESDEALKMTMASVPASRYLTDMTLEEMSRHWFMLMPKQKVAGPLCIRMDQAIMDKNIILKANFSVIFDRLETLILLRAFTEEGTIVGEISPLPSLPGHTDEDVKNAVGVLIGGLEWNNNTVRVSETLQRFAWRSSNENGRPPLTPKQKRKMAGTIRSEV

[16] = Counterscreen for AddAB inhibitors: absorbance-based bacterial cell-based high throughput dose response assay for inhibitors of bacterial viability. [Related pubchem assays (depositor defined):AID435030, AID449728, AID449731, AID488942, AID488955, AID488956]; assay type: functional
[17] = biological target: T3, Replicative DNA helicase DnaB (Mycobacterium tuberculosis, UniProt P9WMR3); test: DnaB intein splicing inhibitors, dose response, biochemical, cell-free fluorescence (AID 449749); assay type: functional
T3 sequence (P9WMR3 whole entry): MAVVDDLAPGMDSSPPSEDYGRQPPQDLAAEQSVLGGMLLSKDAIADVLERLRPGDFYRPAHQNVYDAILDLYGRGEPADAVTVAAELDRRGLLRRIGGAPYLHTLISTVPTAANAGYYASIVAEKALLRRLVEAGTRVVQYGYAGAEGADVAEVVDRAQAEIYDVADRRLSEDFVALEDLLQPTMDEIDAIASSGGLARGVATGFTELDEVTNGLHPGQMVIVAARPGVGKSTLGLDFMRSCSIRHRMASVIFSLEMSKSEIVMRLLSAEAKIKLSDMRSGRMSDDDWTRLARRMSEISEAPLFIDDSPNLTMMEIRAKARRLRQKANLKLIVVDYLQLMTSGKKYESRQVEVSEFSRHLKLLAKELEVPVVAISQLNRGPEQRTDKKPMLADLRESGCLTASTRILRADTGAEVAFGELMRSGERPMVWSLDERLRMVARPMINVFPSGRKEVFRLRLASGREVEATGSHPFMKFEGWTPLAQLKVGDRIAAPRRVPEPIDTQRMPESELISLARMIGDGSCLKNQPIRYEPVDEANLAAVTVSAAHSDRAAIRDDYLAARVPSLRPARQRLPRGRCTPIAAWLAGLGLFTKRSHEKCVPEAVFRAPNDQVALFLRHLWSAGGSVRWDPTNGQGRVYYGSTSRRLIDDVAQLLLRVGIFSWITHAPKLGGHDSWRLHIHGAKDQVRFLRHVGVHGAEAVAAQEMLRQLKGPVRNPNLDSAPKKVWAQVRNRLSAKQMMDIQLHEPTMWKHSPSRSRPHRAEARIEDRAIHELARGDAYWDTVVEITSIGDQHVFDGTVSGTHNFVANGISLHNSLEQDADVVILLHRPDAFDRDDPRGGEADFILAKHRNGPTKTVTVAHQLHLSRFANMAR

[18] = biological target: Heat shock protein HSP 90-alpha (Homo sapiens, UniProt P07900); assay type: functional, organism-based
BJ [19] = test: growth inhibition of engineered Ras-driven BJ cells – cell-based, alamar blue fluorescence, cherrypicked samples, dose response (AID 2631); assay type: functional; details: Homo sapiens;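 further: confirmatory dose-response assay in RAS-dependent BJ fibroblasts engineered with TERT, LT and ST, with cytotoxicity read by fluorescence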
Protein RecA = biological target: T4, Protein RecA (Mycobacterium tuberculosis, UniProt P9WHJ3); test: Fluorescence Cell-Free Homogeneous Dose Retest to Identify Inhibitors of RecA-Intein Splicing Activity. [Related pubchem assays (depositor defined):AID2097, AID2223, AID489010, AID492950]; assay type: functional
T4 sequence (P9WHJ3 whole entry): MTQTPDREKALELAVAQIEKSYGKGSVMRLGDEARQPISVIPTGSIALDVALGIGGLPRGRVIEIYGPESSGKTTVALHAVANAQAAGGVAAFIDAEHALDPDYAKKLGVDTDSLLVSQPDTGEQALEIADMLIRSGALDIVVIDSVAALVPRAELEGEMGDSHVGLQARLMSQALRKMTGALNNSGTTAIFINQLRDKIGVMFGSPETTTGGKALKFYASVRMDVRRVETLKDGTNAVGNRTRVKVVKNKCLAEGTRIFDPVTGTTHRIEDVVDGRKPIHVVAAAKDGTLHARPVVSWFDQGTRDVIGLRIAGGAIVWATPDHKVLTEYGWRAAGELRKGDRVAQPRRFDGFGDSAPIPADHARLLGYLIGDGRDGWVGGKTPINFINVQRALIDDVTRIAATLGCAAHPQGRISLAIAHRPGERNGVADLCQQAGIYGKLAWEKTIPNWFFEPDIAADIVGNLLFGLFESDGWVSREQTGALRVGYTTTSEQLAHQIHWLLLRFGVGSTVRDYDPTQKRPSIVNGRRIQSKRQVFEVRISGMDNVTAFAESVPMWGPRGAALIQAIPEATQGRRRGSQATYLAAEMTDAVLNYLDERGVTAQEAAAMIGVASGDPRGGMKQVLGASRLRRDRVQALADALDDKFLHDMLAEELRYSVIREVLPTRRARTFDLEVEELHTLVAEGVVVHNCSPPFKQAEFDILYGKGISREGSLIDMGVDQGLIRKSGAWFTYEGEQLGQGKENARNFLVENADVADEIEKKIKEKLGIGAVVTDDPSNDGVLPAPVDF

INS1 = test: INS-1E survival protection against cytokine death – cell-based, luminescence, retest, dose response (AID 449756); assay type: functional; details: Rattus norvegicus, INS1;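 further: cell death triggered by IL-1 beta plus TNF-alpha plus IFN-gamma mixture; protective hits raise ATP signal compared with cytokine alone wells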

For `N#Cc1ccc(/N=c2\ssnc2Cl)cc1`, the EC50 (BJ [1]) was 6.16 µM (inconclusive), the EC50 (BJ [2]) was > 150 µM (inconclusive) and the EC50 (BJ [3]) was > 150 µM (inconclusive). For the same compound, the EC50 [4] was 14.3 µM (active), the IC50 [5] was 6.34 µM (not active) and the IC50 [6] was 4.14 µM (active). For the same compound, the IC50 [7] was > 100 µM (inactive), the IC50 (Phosphomannomutase 2) was > 100 µM (inactive) and the IC50 [8] was 7.33 µM (active). The AC50 [9] was 5.67 µM (active).

In the case of `c1ccc(-c2nnc(-c3ccccn3)nc2NC2CCCCC2)cc1`, the EC50 [10] is reported as 0.513 µM (inconclusive), the EC50 [11] is reported as 4.44 µM (active) and the EC50 (BJ [1]) is reported as 3.21 µM (active). The EC50 (cells [12]) was 32.6 µM (active), the EC50 [13] was 18.8 µM (active) and the EC50 [14] was 1.66 µM (inconclusive). The EC50 (Streptokinase A) was > 50 µM (not active), the EC50 (BJ [2]) was 4.7 µM (active) and the EC50 (cells [15]) was > 350 µM (not active). For the same compound, the EC50 (BJ [3]) was 3.31 µM (inconclusive), the EC50 [4] was 4.27 µM (active) and the EC50 (Streptococcus) was 4.21 µM (active). The IC50 (Exodeoxyribonuclease V) was > 39.5 µM (inactive), the IC50 (Nonstructural protein 1) was 1.21 µM (active) and the IC50 [16] was > 39.5 µM (inactive). For the same compound, the AC50 [17] was 9.45 µM (active), the AC50 [18] was 3.99 µM (active) and the EC50 (BJ [19]) was 0.585 µM (inconclusive). For the same compound, the EC50 (Protein RecA) was 16.9 µM (active) and the AC50 (INS1) was 3.94 µM (active).
